Data published in ChEMBL document CHEMBL1909046, “DrugMatrix in vitro pharmacology data”.

Key:
[1] = biological target: Vascular endothelial growth factor receptor 1 (Homo sapiens, UniProt P17948); assay type: cell-based; details: huvec; note: in other assays of this panel Not Active means under 50% inhibition at 10 µM
Cytochrome P450 2D6 = Cytochrome P450 2D6 (Homo sapiens, UniProt P10635); details: bti-tn-5b1-4; note: in other assays of this panel Not Active means under 50% inhibition at 10 µM
Sequence of Cytochrome P450 2D6 (P10635 whole entry): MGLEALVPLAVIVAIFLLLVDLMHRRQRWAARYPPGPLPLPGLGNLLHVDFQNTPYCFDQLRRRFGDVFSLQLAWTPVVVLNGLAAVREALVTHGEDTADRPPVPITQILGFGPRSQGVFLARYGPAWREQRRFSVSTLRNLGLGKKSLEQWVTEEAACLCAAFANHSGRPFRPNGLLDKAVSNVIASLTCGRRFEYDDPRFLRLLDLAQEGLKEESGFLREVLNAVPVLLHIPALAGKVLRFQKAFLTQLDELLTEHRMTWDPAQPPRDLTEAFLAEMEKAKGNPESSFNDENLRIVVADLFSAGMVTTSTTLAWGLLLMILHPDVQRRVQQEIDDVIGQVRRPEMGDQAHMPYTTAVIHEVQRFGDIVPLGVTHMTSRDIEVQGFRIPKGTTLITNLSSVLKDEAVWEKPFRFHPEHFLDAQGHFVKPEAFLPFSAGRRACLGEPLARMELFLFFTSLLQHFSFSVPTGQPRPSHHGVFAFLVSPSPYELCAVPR

[2] = biological target: 5-hydroxytryptamine receptor 1B (Rattus norvegicus, UniProt P28564); assay type: cell membranes, Wistar, Cerebral cortex, Membrane; note: in other assays of this panel Not Active means under 50% inhibition at 10 µM
Sequence of 5-hydroxytryptamine receptor 1B (P28564 whole entry): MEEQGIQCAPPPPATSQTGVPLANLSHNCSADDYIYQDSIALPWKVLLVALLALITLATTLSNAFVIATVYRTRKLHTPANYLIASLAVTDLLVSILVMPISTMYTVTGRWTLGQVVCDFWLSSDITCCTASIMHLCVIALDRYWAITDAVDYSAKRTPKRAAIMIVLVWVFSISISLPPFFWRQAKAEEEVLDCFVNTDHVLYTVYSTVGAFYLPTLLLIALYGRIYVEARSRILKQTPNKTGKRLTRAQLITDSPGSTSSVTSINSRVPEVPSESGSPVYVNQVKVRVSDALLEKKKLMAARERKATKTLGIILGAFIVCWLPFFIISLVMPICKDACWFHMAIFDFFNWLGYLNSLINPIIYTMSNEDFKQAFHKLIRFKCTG

[3] = DRUGMATRIX: Glutamate, AMPA radioligand binding (ligand: [3H] AMPA); assay type: cell membranes, Rattus norvegicus, Wistar, Cerebral cortex, Membrane; details: Not Active = under 50% inhibition at 10 µM
[4] = biological target: Beta-1 adrenergic receptor (Homo sapiens, UniProt P08588); assay: DRUGMATRIX: Adrenergic beta1 radioligand binding (ligand: [125I] Cyanopindolol); assay type: cell membranes, CHO-K1, Membrane; details: cho-k1; Not Active = under 50% inhibition at 10 µM
Sequence of Beta-1 adrenergic receptor (P08588 whole entry): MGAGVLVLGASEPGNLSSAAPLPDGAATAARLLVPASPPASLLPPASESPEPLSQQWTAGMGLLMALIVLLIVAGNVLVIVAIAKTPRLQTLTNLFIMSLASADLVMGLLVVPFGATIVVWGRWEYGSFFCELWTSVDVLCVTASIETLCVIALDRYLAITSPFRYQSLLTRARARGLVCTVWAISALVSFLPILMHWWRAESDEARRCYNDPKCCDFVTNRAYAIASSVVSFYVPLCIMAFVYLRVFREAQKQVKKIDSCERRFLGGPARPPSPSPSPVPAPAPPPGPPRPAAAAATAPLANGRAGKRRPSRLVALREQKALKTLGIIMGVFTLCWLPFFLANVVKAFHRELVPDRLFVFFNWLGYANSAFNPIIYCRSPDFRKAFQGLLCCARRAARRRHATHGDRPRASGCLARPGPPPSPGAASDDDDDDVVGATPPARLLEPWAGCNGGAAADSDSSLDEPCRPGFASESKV

[5] = biological target: T1, 3-hydroxy-3-methylglutaryl-coenzyme A reductase (Homo sapiens, UniProt P04035); set-up: species or system Escherichia coli;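 note: enzyme inhibition assay of HMG-CoA reductase using radiolabeled [14C]HMG-CoA as substrate; in other assays of this panel Not Active means under 50% inhibition at 10 µM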
T1 sequence (P04035 whole entry): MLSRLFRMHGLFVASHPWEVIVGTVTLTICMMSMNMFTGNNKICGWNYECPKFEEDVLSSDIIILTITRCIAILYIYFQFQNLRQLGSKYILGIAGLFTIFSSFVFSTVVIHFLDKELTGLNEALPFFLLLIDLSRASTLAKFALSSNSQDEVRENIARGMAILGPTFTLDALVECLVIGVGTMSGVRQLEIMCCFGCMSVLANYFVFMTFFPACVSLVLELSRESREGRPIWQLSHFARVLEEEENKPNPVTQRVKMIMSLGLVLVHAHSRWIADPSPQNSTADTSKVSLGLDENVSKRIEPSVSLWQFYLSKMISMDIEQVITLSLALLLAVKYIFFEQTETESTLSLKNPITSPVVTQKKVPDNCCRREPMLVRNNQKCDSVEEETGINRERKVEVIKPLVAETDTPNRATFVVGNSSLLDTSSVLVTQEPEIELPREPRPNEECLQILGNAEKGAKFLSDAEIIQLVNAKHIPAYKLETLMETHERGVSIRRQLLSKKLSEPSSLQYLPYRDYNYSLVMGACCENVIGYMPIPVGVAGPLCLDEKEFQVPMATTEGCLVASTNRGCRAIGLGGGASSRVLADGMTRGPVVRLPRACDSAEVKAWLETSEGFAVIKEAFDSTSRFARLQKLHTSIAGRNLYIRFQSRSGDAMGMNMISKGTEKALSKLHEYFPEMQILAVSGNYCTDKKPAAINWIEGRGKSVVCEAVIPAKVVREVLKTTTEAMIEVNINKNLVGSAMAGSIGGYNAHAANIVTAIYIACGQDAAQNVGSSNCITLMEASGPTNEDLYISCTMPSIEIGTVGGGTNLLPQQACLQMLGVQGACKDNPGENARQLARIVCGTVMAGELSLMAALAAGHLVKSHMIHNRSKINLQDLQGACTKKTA

[6] = biological target: cGMP-specific 3',5'-cyclic phosphodiesterase (Homo sapiens, UniProt O76074); assay: DRUGMATRIX: Phosphodiesterase PDE5 enzyme inhibition (substrate: [3H]cGMP + cGMP); assay type: tissue-based, Platelet; details: platelet; Not Active = under 50% inhibition at 10 µM

Sequence of Vascular endothelial growth factor receptor 1 (P17948 whole entry): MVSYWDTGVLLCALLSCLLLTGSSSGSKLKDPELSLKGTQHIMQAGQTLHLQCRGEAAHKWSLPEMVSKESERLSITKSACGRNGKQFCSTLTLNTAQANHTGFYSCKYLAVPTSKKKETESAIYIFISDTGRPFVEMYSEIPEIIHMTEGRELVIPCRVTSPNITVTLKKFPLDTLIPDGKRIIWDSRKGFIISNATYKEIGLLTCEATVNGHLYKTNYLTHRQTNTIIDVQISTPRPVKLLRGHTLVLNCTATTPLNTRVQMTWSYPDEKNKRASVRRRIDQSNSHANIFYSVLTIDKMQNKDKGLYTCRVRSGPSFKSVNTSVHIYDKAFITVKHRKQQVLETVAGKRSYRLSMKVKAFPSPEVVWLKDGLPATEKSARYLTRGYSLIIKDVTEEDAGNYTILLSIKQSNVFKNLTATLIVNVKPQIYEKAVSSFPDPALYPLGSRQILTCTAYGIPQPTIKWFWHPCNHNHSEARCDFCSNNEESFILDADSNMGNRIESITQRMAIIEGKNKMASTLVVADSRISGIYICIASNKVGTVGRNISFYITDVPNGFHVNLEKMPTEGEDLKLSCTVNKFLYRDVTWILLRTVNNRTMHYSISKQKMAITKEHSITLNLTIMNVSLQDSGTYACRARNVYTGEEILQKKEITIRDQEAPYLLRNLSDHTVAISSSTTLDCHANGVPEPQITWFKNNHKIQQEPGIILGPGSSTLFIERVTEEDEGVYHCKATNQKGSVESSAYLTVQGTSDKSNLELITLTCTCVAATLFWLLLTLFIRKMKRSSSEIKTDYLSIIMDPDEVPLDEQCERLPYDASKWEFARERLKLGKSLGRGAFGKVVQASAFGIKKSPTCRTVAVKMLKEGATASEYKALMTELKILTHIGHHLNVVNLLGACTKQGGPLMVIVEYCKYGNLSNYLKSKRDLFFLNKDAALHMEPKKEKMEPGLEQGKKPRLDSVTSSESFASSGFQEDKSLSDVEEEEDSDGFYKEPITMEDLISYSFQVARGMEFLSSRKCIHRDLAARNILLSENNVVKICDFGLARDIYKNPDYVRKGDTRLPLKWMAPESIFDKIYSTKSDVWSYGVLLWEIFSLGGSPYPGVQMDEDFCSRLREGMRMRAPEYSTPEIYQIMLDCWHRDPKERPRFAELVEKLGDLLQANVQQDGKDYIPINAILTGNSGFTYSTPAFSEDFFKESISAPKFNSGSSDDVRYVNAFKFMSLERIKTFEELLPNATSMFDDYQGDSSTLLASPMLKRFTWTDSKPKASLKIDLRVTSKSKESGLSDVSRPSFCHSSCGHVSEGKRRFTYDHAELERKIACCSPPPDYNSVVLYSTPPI

C[C@H]1COc2c(N3CCN(C)CC3)c(F)cc3c(=O)c(C(=O)O)cn1c23.C[C@H]1COc2c(N3CCN(C)CC3)c(F)cc3c(=O)c(C(=O)O)cn1c23.O [LEVOFLOXACIN]
Not Active: IC50 [1] | IC50 (Cytochrome P450 2D6) | Ki (Cytochrome P450 2D6) | IC50 [2] | IC50 [3] | Ki [3] | IC50 [4] | IC50 [5] | IC50 [6]

CCn1cc(C(=O)O)c(=O)c2cc(F)c(N3CCNC(C)C3)c(F)c21 (stereo unspecified) [LOMEFLOXACIN]
Not Active: IC50 [1] | IC50 (Cytochrome P450 2D6) | Ki (Cytochrome P450 2D6) | IC50 [2] | IC50 [3] | Ki [3] | IC50 [4] | IC50 [5] | IC50 [6]

CN1CCCC(CN2c3ccccc3Sc3ccccc32)C1 (stereo unspecified) [MEPAZINE]
Not Active: IC50 [1] | IC50 (Cytochrome P450 2D6) | Ki (Cytochrome P450 2D6) | IC50 [2] | IC50 [3] | Ki [3] | IC50 [4] | IC50 [5] | IC50 [6]

Cc1cccc(C)c1NC(=O)C1CCCCN1C (stereo unspecified) [MEPIVACAINE]
Not Active: IC50 [1] | IC50 (Cytochrome P450 2D6) | Ki (Cytochrome P450 2D6) | IC50 [2] | IC50 [3] | Ki [3] | IC50 [4] | IC50 [5] | IC50 [6]

CN(C)C(=N)NC(=N)N [METFORMIN]
Not Active: IC50 [1] | IC50 (Cytochrome P450 2D6) | Ki (Cytochrome P450 2D6) | IC50 [2] | IC50 [3] | Ki [3] | IC50 [4] | IC50 [5] | IC50 [6]

CC(C)(C)NCC(O)COc1cccc2c1CC(O)C(O)C2 (stereo unspecified) [NADOLOL]
Not Active: IC50 [1] | IC50 (Cytochrome P450 2D6) | Ki (Cytochrome P450 2D6) | IC50 [2] | IC50 [3] | Ki [3] | IC50 [4] | IC50 [5] | IC50 [6]

C[C@]12CC[C@H]3[C@@H](CCC4=CC(=O)CC[C@@H]43)[C@@H]1CC[C@@H]2O [NANDROLONE]
Not Active: IC50 [1] | IC50 (Cytochrome P450 2D6) | Ki (Cytochrome P450 2D6) | IC50 [2] | IC50 [3] | Ki [3] | IC50 [4] | IC50 [5] | IC50 [6]

CN(C)C(=O)Oc1cccc([N+](C)(C)C)c1.[Br-] [NEOSTIGMINE BROMIDE]
Not Active: IC50 [1] | IC50 (Cytochrome P450 2D6) | Ki (Cytochrome P450 2D6) | IC50 [2] | IC50 [3] | Ki [3] | IC50 [4] | IC50 [5] | IC50 [6]

NC(=O)c1cccnc1 [NIACINAMIDE]
Not Active: IC50 [1] | IC50 (Cytochrome P450 2D6) | Ki (Cytochrome P450 2D6) | IC50 [2] | IC50 [3] | Ki [3] | IC50 [4] | IC50 [5] | IC50 [6]

CS(=O)(=O)Nc1ccc([N+](=O)[O-])cc1Oc1ccccc1 [NIMESULIDE]
Not Active: IC50 [1] | IC50 (Cytochrome P450 2D6) | Ki (Cytochrome P450 2D6) | IC50 [2] | IC50 [3] | Ki [3] | IC50 [4] | IC50 [5] | IC50 [6]

CN1C(=O)CN=C(c2ccccc2)c2cc([N+](=O)[O-])ccc21 [NIMETAZEPAM]
Not Active: IC50 [1] | IC50 (Cytochrome P450 2D6) | Ki (Cytochrome P450 2D6) | IC50 [2] | IC50 [3] | Ki [3] | IC50 [4] | IC50 [5] | IC50 [6]

COc1ccc2c(c1OC)C(=O)O[C@@H]2[C@H]1c2c(cc3c(c2OC)OCO3)CCN1C [NOSCAPINE]
Not Active: IC50 [1] | IC50 (Cytochrome P450 2D6) | Ki (Cytochrome P450 2D6) | IC50 [2] | IC50 [3] | Ki [3] | IC50 [4] | IC50 [5] | IC50 [6]

C[C@@H]1O[C@@H](O[C@H]2C[C@@H](O)[C@]3(CO)[C@H]4[C@H](O)C[C@]5(C)[C@@H](C6=CC(=O)OC6)CC[C@]5(O)[C@@H]4CC[C@]3(O)C2)[C@H](O)[C@H](O)[C@H]1O [OUABAIN]
Not Active: IC50 [1] | IC50 (Cytochrome P450 2D6) | Ki (Cytochrome P450 2D6) | IC50 [2] | IC50 [3] | Ki [3] | IC50 [4] | IC50 [5] | IC50 [6]

NC(=O)N1c2ccccc2CC(=O)c2ccccc21 [OXCARBAZEPINE]
Not Active: IC50 [1] | IC50 (Cytochrome P450 2D6) | Ki (Cytochrome P450 2D6) | IC50 [2] | IC50 [3] | Ki [3] | IC50 [4] | IC50 [5] | IC50 [6]

COc1ccnc(C[S+]([O-])c2nc3ccc(OC(F)F)cc3[nH]2)c1OC (stereo unspecified) [PANTOPRAZOLE]
Not Active: IC50 [1] | IC50 (Cytochrome P450 2D6) | Ki (Cytochrome P450 2D6) | IC50 [2] | IC50 [3] | Ki [3] | IC50 [4] | IC50 [5] | IC50 [6]

N=C(N)c1ccc(OCCCCCOc2ccc(C(=N)N)cc2)cc1 [PENTAMIDINE]
Not Active: IC50 [1] | IC50 (Cytochrome P450 2D6) | Ki (Cytochrome P450 2D6) | IC50 [2] | IC50 [3] | Ki [3] | IC50 [4] | IC50 [5] | IC50 [6]

CCc1ccc(CCOc2ccc(CC3SC(=O)NC3=O)cc2)nc1 (stereo unspecified) [PIOGLITAZONE]
Not Active: IC50 [1] | IC50 (Cytochrome P450 2D6) | Ki (Cytochrome P450 2D6) | IC50 [2] | IC50 [3] | Ki [3] | IC50 [4] | IC50 [5] | IC50 [6]

CCCNC(C)C(=O)Nc1ccccc1C (stereo unspecified) [PRILOCAINE]
Not Active: IC50 [1] | IC50 (Cytochrome P450 2D6) | Ki (Cytochrome P450 2D6) | IC50 [2] | IC50 [3] | Ki [3] | IC50 [4] | IC50 [5] | IC50 [6]

CCN(CC)CCNC(=O)c1ccc(N)cc1 [PROCAINAMIDE]
Not Active: IC50 [1] | IC50 (Cytochrome P450 2D6) | Ki (Cytochrome P450 2D6) | IC50 [2] | IC50 [3] | Ki [3] | IC50 [4] | IC50 [5] | IC50 [6]
